According to patent US20140120083A1, “TREATMENT OF CANCERS USING PI3 KINASE ISOFORM MODULATORS” (INFINITY PHARMACEUTICALS, INC., priority 2012, published 2014):

Key:
Format in all cases: biochemical
PI3K γ = target: T1, PI3K γ (Homo sapiens, UniProt P48736); experiment: In vitro IC50, PI3K γ
T1 construct: purchased Sigma
From the text: (§1) An exemplary system is PI 3-Kinase (human) HTRF™ Assay from Upstate.

PI3K α = target: T2, PI3K α (Homo sapiens, UniProt P42336); experiment: In vitro IC50, PI3K α
T2 construct: purchased Upstate
From the text: as §1

PI3K β = PI3K β (Homo sapiens, UniProt P42338); experiment: In vitro IC50, PI3K β
From the text: as §1

PI3K δ = PI3K δ (Homo sapiens, UniProt O00329); experiment: In vitro IC50, PI3K δ; set-up: purchased Upstate
From the text: as §1

Sequence of PI3K β (P42338 whole entry): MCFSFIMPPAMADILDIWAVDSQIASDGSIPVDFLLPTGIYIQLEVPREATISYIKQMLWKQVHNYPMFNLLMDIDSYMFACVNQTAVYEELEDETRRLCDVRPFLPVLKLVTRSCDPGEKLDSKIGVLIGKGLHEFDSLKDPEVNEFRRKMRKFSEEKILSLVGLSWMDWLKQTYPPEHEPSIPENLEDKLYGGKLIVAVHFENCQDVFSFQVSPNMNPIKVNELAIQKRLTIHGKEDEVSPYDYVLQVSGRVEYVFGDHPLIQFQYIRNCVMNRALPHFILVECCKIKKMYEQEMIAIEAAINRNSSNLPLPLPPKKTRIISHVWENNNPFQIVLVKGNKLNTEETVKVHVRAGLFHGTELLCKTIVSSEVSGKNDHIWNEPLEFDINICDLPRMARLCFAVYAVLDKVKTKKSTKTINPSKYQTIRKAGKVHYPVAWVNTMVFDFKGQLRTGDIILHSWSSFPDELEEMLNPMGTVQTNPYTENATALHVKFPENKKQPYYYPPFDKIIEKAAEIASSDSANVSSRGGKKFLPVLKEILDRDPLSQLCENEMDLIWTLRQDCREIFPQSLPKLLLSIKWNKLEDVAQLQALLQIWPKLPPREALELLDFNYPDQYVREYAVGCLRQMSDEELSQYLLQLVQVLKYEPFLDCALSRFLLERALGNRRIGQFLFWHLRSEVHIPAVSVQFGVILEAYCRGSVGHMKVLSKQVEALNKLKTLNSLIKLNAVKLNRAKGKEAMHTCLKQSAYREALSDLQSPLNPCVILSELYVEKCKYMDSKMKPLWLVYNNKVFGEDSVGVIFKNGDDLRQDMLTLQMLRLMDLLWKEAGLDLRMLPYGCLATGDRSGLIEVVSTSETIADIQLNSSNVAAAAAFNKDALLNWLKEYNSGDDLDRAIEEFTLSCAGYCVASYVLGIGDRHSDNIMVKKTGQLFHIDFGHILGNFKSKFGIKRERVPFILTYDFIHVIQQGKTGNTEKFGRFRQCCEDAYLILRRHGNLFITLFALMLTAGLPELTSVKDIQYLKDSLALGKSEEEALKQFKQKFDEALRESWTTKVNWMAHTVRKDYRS
T2 sequence (P42336 whole entry): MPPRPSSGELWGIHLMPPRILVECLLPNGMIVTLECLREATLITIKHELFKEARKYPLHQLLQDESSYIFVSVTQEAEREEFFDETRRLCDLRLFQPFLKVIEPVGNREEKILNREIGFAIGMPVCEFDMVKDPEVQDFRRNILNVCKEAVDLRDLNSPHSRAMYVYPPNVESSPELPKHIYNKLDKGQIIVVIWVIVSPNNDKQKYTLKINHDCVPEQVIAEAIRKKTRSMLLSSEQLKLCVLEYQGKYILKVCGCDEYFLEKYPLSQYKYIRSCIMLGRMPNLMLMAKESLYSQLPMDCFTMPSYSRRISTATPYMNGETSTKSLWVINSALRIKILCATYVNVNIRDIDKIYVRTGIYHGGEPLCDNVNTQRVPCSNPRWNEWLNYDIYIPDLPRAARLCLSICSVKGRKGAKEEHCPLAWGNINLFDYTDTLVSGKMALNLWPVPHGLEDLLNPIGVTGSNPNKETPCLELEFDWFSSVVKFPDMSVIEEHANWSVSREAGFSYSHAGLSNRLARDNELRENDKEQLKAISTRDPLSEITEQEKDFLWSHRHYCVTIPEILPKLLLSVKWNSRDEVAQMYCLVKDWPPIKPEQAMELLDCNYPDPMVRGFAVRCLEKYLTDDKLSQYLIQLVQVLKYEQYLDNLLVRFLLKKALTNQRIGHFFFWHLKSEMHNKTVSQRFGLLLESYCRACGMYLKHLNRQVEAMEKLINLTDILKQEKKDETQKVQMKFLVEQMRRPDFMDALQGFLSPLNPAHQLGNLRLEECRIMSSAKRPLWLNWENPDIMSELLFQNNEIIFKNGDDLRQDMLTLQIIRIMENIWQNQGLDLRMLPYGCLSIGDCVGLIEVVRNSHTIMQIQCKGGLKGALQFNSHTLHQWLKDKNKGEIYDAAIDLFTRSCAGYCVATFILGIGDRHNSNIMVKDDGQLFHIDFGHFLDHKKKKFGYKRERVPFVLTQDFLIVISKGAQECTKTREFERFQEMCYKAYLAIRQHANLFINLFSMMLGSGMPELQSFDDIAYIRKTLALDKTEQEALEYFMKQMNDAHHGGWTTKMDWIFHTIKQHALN
T2 sequence (P27986 whole entry partner): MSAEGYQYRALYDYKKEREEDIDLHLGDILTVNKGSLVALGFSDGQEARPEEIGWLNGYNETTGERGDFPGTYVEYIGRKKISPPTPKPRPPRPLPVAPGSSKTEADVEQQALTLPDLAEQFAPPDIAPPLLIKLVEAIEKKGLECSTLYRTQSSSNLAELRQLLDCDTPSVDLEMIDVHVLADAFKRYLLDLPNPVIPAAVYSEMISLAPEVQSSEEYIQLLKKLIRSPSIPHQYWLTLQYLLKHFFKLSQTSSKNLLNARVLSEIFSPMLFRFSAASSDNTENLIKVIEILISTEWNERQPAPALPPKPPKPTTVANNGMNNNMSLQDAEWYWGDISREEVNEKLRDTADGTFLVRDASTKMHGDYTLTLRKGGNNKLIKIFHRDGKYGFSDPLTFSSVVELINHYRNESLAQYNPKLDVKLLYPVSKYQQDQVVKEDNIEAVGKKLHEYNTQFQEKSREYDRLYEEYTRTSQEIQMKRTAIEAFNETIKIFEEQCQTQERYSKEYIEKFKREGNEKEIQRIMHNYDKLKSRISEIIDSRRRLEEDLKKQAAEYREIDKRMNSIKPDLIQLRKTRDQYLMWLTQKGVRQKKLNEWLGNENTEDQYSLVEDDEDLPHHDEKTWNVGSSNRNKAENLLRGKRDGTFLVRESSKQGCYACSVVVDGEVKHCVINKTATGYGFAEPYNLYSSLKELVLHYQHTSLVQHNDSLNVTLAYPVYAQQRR
Sequence of PI3K δ (O00329 whole entry): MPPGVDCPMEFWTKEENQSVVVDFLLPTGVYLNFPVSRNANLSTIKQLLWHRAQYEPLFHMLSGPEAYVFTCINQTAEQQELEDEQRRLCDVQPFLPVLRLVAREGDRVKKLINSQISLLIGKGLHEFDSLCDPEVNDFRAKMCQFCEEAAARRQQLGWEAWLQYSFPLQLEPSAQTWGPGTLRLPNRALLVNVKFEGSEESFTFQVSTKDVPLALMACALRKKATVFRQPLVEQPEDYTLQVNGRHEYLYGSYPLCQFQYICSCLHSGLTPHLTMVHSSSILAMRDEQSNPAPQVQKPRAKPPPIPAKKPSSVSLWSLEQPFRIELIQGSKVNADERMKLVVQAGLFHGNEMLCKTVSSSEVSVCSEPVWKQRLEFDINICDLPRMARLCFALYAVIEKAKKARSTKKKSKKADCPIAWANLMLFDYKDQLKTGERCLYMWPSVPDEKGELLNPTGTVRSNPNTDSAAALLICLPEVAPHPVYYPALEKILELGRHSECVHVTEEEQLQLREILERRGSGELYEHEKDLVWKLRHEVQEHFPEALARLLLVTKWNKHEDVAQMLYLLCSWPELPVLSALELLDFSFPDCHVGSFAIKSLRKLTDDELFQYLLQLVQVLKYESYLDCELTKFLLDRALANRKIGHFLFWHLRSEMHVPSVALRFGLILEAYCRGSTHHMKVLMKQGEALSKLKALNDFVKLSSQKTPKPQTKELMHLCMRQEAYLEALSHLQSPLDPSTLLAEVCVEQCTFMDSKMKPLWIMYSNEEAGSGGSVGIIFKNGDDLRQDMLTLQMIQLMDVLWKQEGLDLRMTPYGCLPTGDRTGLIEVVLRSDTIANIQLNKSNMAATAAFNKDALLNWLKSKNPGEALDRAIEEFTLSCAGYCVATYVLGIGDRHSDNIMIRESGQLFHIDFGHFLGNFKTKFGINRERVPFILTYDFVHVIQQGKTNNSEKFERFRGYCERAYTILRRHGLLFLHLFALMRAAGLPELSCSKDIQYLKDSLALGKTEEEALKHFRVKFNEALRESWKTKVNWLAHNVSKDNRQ
Sequence of PI3K δ (P27986 whole entry partner): as the sequence (P27986 whole entry partner) above
T1 sequence (P48736 whole entry): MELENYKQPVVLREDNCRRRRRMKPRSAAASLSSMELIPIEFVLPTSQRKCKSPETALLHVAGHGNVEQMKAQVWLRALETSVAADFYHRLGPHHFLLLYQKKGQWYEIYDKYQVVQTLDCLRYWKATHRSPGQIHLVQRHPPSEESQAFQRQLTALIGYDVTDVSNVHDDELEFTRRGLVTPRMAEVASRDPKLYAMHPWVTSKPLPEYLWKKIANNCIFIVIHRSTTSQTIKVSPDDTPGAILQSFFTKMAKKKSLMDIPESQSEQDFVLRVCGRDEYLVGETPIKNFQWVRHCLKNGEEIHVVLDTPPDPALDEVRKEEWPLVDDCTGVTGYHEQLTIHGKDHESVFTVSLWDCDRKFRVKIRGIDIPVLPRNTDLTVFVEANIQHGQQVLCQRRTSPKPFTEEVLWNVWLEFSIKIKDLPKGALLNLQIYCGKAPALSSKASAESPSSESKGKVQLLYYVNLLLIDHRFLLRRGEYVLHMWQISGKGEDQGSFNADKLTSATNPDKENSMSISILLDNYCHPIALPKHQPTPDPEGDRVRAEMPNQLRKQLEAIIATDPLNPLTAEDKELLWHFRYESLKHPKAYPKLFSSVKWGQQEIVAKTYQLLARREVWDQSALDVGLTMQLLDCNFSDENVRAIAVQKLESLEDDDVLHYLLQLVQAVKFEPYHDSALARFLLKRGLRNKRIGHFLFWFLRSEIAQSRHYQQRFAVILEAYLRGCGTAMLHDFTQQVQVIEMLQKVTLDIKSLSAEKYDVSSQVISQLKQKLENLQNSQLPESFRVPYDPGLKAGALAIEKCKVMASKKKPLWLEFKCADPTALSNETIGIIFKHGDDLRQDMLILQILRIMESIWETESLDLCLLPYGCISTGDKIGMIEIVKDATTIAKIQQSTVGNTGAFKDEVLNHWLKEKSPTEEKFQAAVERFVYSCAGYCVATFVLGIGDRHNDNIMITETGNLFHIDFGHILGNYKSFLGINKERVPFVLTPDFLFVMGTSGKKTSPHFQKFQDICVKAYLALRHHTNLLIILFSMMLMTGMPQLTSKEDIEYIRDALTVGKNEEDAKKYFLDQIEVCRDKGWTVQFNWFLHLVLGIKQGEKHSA

Structure (SMILES)	IC50 (PI3K γ)	IC50 (PI3K α)	IC50 (PI3K β)	IC50 (PI3K δ)
Cc1cccnc1-n1c(Cn2nc(-c3ccc4oc(N)nc4c3)c3c(N)ncnc32)cc2cccc(C)c2c1=O [Compound 240]	< 100 nM	< 10000 nM	< 10000 nM	< 100 nM
Cc1ccccc1-n1c(Cn2nc(-c3ccc4nc(N)oc4c3)c3c(N)ncnc32)cc2cccc(C)c2c1=O [Compound 243]	< 100 nM	< 10000 nM	< 10000 nM	< 100 nM
Cc1cccc2cc([C@H](C)Nc3nc(Cl)ncc3Cl)n(-c3ccccc3)c(=O)c12 [Compound 248]	< 10000 nM	> 10000 nM	> 10000 nM	< 1000 nM
Cc1cccc2cc([C@H](C)Nc3nc(N)ncc3Cl)n(-c3ccccc3)c(=O)c12 [Compound 249]	< 100 nM	> 10000 nM	< 10000 nM	< 100 nM
CC(=O)Nc1nc2cc(-c3nn(Cc4cc5cccc(C)c5c(=O)n4-c4ccccc4C)c4ncnc(N)c34)ccc2o1 [Compound 251]	< 100 nM	< 10000 nM	< 1000 nM	< 100 nM
Cc1cccc2cc(Cn3nc(-c4ccc5nc(N)sc5c4)c4c(N)ncnc43)n(-c3ccccc3)c(=O)c12 [Compound 252]	< 100 nM	< 100 nM	< 1000 nM	< 100 nM
CC(=O)Nc1nc2cc(-c3nn(Cc4cc5cccc(C)c5c(=O)n4-c4ccccc4)c4ncnc(N)c34)ccc2o1 [Compound 253]	< 100 nM	< 10000 nM	< 100 nM	< 100 nM
Cc1cccc2cc([C@H](C)NC3CCOCC3)n(-c3ccccc3)c(=O)c12 [Compound 259]	> 10000 nM	> 10000 nM	> 10000 nM	> 10000 nM
Cc1cccc2cc([C@H](C)Nc3ncnc4[nH]cnc34)n(-c3ccc(F)cc3)c(=O)c12 [Compound 260]	< 100 nM	< 1000 nM	< 100 nM	< 100 nM

Other lines, results leading:

IC50 (PI3K γ)	IC50 (PI3K α)	IC50 (PI3K β)	IC50 (PI3K δ)	Structure (SMILES)
< 100 nM	< 10000 nM	< 10000 nM	< 100 nM	Cc1cccc2cc([C@H](C)Nc3nc(Cl)nc4[nH]cnc34)n(-c3ccccc3)c(=O)c12 [Compound 244]
< 100 nM	> 10000 nM	< 10000 nM	< 100 nM	Cc1cccc2cc([C@H](C)Nc3ncnc4[nH]ccc34)n(-c3ccccc3)c(=O)c12 [Compound 247]
< 100 nM	< 10000 nM	< 100 nM	< 100 nM	Cc1cccc2cc([C@H](C)Nc3ncnc4[nH]cc(F)c34)n(-c3ccccc3)c(=O)c12 [Compound 254]
< 100 nM	< 10000 nM	< 100 nM	< 100 nM	Cc1cccc2cc([C@H](C)Nc3ncnc4[nH]nc(C#N)c34)n(-c3ccccc3)c(=O)c12 [Compound 255]
< 100 nM	< 10000 nM	< 100 nM	< 100 nM	Cc1cccc2cc([C@H](C)Nc3ncnc4[nH]nc(C(N)=O)c34)n(-c3ccccc3)c(=O)c12 [Compound 256]
< 100 nM	< 1000 nM	< 100 nM	< 100 nM	Cc1cccc2cc([C@H](C)Nc3ncnc4[nH]cc(Br)c34)n(-c3ccccc3)c(=O)c12 [Compound 257]
< 10000 nM	> 10000 nM	> 10000 nM	> 10000 nM	Cc1cccc2cc([C@H](C)Nc3ncnc4[nH]c(Cl)nc34)n(-c3ccccc3)c(=O)c12 [Compound 261]
< 100 nM	< 1000 nM	< 100 nM	< 100 nM	Cc1cccc2cc([C@H](C)Nc3ncnc4[nH]cc(Cl)c34)n(-c3ccccc3)c(=O)c12 [Compound 262]
> 10000 nM	> 10000 nM	> 10000 nM	> 10000 nM	Cc1cccc2cc([C@H](C)Nc3ncnc4[nH]c(O)nc34)n(-c3ccccc3)c(=O)c12 [Compound 263]
< 100 nM	< 1000 nM	< 100 nM	< 100 nM	Cc1cccc2cc([C@H](C)Nc3ncnc4[nH]cc(C#N)c34)n(-c3ccccc3)c(=O)c12 [Compound 264]
